The values that follow come from PMC4310350 (Drug Design, Development and Therapy, 2015).

Holding throughout (assay type): in vitro ADME
Data set [1] deals with T1, OCT1 (Homo sapiens, UniProt O15245).
T1 sequence (O15245 1-554): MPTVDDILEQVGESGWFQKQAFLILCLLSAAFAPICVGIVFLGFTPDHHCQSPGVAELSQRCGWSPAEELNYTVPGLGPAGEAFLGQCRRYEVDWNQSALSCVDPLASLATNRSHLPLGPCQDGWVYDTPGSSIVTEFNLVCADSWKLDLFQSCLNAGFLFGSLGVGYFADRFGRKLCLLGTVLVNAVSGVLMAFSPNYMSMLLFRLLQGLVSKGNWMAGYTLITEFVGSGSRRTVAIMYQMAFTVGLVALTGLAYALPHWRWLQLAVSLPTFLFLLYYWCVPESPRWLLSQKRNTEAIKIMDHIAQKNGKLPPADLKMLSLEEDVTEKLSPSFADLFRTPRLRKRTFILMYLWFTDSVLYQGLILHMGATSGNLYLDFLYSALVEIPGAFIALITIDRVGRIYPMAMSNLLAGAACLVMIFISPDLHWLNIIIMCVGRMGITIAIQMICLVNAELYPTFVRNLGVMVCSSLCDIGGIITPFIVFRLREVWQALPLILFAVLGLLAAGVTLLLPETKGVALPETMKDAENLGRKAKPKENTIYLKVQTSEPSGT
Nature of the data set: Uptake in HEK293 cells overexpressing OCT1. As to conditions: probe substrate, functionality check of OCT1.

For data set [2], the target named is T2, OCT2 (Homo sapiens, UniProt O15244).
T2 sequence (O15244 1-555): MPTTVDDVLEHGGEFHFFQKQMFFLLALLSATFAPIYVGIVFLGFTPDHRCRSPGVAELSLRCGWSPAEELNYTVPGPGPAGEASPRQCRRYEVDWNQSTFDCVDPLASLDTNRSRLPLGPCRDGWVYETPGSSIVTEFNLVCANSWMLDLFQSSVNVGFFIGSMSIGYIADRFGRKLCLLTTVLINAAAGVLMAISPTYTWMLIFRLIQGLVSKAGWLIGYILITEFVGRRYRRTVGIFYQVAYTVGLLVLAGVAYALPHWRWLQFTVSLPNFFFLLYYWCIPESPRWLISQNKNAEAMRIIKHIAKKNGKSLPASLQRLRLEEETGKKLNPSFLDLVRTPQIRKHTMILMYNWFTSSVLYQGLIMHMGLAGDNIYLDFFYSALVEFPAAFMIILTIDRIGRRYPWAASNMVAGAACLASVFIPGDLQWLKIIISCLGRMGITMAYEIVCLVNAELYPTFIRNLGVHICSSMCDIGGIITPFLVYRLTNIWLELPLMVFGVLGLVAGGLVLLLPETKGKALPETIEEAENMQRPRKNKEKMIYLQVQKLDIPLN
Nature of the data set: Uptake in HEK293 cells overexpressing OCT2. The settings on record: probe substrate, functionality check of OCT2.

Data set [3] deals with P-gp (Homo sapiens, UniProt P08183). Nature of the data set: A-to-B and B-to-A transport in LLC-PK1 cells overexpressing P-gp. The settings on record: pig, LLC-PK1, Net efflux ratio, probe substrate, LLC-PK1-MDR1 compared with LLC-PK1-mock cells.
Substrate in data set [4]: O=C(O[C@H]1[C@@H]2C=CO[C@@H](O[C@@H]3O[C@H](CO)[C@@H](O)[C@H](O)[C@H]3O)[C@@H]2[C@@]2(CO)O[C@@H]12)c1ccc(O)cc1
Put plainly: Uptake in HEK293 cells overexpressing OATP1B1. As to conditions: other: OATP1B1-mediated uptake, 2–500 μM catalposide, 5 minutes; 37.0 °C.

Chain of P-gp (P08183 whole entry): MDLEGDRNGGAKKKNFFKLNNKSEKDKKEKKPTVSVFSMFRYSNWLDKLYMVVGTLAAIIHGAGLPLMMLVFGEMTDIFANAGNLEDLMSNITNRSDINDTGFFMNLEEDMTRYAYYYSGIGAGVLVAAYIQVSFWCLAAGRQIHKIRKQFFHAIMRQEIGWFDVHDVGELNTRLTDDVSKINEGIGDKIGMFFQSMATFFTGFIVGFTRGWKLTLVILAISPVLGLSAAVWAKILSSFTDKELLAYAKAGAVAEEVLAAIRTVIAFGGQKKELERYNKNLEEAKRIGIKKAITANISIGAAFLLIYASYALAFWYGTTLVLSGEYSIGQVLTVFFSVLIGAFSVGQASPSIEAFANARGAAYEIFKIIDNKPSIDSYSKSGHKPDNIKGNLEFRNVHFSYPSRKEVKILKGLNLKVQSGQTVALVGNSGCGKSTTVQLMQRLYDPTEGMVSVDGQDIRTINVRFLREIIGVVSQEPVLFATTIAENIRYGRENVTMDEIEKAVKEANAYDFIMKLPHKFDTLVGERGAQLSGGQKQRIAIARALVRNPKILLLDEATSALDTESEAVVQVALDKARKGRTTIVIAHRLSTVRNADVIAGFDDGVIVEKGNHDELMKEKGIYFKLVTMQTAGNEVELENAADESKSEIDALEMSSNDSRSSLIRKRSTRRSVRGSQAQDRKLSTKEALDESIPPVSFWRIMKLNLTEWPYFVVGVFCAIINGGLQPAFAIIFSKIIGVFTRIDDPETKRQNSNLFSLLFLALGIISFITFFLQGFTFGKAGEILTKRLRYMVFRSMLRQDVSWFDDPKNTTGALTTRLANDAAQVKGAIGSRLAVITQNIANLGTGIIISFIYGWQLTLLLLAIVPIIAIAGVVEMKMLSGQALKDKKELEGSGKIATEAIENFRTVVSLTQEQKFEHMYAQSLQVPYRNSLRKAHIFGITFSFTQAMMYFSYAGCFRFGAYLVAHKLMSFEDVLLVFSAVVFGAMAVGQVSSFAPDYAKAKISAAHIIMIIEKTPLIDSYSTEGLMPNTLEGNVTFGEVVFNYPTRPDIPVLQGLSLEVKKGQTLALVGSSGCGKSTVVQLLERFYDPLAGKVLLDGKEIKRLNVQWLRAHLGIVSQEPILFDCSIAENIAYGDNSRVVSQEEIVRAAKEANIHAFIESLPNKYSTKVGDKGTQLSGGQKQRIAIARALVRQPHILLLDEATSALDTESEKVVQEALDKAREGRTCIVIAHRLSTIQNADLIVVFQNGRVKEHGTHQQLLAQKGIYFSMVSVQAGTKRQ

Turning to `C[n+]1ccc(-c2ccccc2)cc1` [MPP^+, methyl-4-phenylpyridinium], the “Fold increase in uptake vs HEK293 mock cells” value in data set [1] is on record as 13.2 fold; in data set [2], 17.8 fold.

For orientation: efflux ratio means the permeability from basolateral to apical divided by that in the opposite direction, in the common usage. Turning to `C[C@H]1O[C@@H](O[C@H]2[C@@H](O)C[C@H](O[C@H]3[C@@H](O)C[C@H](O[C@H]4CC[C@@]5(C)[C@H](CC[C@@H]6[C@@H]5C[C@@H](O)[C@]5(C)[C@@H](C7=CC(=O)OC7)CC[C@]65O)C4)O[C@@H]3C)O[C@@H]2C)C[C@H](O)[C@@H]1O` [digoxin], in data set [3], the efflux ratio at 1 h came to 5.7.

B1: OATP1B1 (Homo sapiens) (protein)
chain: MDQNQHLNKTAEAQPSENKKTRYCNGLKMFLAALSLSFIAKTLGAIIMKSSIIHIERRFEISSSLVGFIDGSFEIGNLLVIVFVSYFGSKLHRPKLIGIGCFIMGIGGVLTALPHFFMGYYRYSKETNINSSENSTSTLSTCLINQILSLNRASPEIVGKGCLKESGSYMWIYVFMGNMLRGIGETPIVPLGLSYIDDFAKEGHSSLYLGILNAIAMIGPIIGFTLGSLFSKMYVDIGYVDLSTIRITPTDSRWVGAWWLNFLVSGLFSIISSIPFFFLPQTPNKPQKERKASLSLHVLETNDEKDQTANLTNQGKNITKNVTGFFQSFKSILTNPLYVMFVLLTLLQVSSYIGAFTYVFKYVEQQYGQPSSKANILLGVITIPIFASGMFLGGYIIKKFKLNTVGIAKFSCFTAVMSLSFYLLYFFILCENKSVAGLTMTYDGNNPVTSHRDVPLSYCNSDCNCDESQWEPVCGNNGITYISPCLAGCKSSSGNKKPIVFYNCSCLEVTGLQNRNYSAHLGECPRDDACTRKFYFFVAIQVLNLFFSALGGTSHVMLIVKIVQPELKSLALGFHSMVIRALGGILAPIYFGALIDTTCIKWSTNNCGTRGSCRTYNSTSFSRVYLGLSSMLRVSSLVLYIILIYAMKKKYQEKDINASENGSVMDEANLESLNKNKHFVPSAGADSETHC
One may read the Km as the substrate concentration at which the rate is half of its maximum. One may read the Vmax as the top rate of the reaction or transport when substrate is in excess. Take B1: in data set [4], the Km was 220.5 µM and the maximum rate (Vmax) is 7.7 pmol/min.
